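GI50 marks 50% less growth. The concentration for full growth arrest is given as TGI.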
Tests used:
Experiment in all cases: growth of human tumour cells (NCI), 384-well format
OVCAR-3 ovarian = test system: OVCAR-3 ovarian
HL-60(TB) leukemia = test system: HL-60(TB) leukemia
NCI-H460 NSCLC = test system: NCI-H460 NSCLC
BT-549 breast = test system: BT-549 breast
UACC-257 melanoma = test system: UACC-257 melanoma
PC-3 prostate = test system: PC-3 prostate
UACC-62 melanoma = test system: UACC-62 melanoma
SF-539 CNS = test system: SF-539 CNS
HS 578T breast = test system: HS 578T breast
MDA-MB-468 breast = test system: MDA-MB-468 breast
CCRF-CEM leukemia = test system: CCRF-CEM leukemia
CAKI-1 renal = test system: CAKI-1 renal
OVCAR-8 ovarian = test system: OVCAR-8 ovarian
M14 melanoma = test system: M14 melanoma
786-0 renal = test system: 786-0 renal
SNB-75 CNS = test system: SNB-75 CNS
SF-295 CNS = test system: SF-295 CNS
OVCAR-4 ovarian = test system: OVCAR-4 ovarian
HCC-2998 colon = test system: HCC-2998 colon
TK-10 renal = test system: TK-10 renal
A549 NSCLC = test system: A549 NSCLC
SNB-19 CNS = test system: SNB-19 CNS
NCI/ADR-RES ovarian = test system: NCI/ADR-RES ovarian
KM12 colon = test system: KM12 colon
HOP-92 NSCLC = test system: HOP-92 NSCLC
SF-268 CNS = test system: SF-268 CNS
A498 renal = test system: A498 renal
LOX IMVI melanoma = test system: LOX IMVI melanoma
MDA-MB-231 breast = test system: MDA-MB-231 breast
MOLT-4 leukemia = test system: MOLT-4 leukemia
MDA-MB-435 melanoma = test system: MDA-MB-435 melanoma
DU-145 prostate = test system: DU-145 prostate
RXF 393 renal = test system: RXF 393 renal
SK-MEL-5 melanoma = test system: SK-MEL-5 melanoma
NCI-H522 lung = test system: NCI-H522 lung
SN12C renal = test system: SN12C renal
HOP-62 NSCLC = test system: HOP-62 NSCLC
U251 glioblastoma = test system: U251 glioblastoma
NCI-H226 lung = test system: NCI-H226 lung
NCI-H322M lung = test system: NCI-H322M lung
MCF7 breast = test system: MCF7 breast
HT29 colon = test system: HT29 colon
SK-OV-3 ovarian = test system: SK-OV-3 ovarian
SK-MEL-28 melanoma = test system: SK-MEL-28 melanoma
K-562 leukemia = test system: K-562 leukemia
T-47D breast = test system: T-47D breast
UO-31 renal = test system: UO-31 renal
COLO 205 colon = test system: COLO 205 colon
HCT-116 colon = test system: HCT-116 colon
ACHN renal = test system: ACHN renal
SW-620 colon = test system: SW-620 colon
RPMI-8226 leukemia = test system: RPMI-8226 leukemia
EKVX NSCLC = test system: EKVX NSCLC
IGROV1 ovarian = test system: IGROV1 ovarian
HCT-15 colon = test system: HCT-15 colon
MALME-3M melanoma = test system: MALME-3M melanoma
NCI-H23 lung = test system: NCI-H23 lung

## Cc1cnc(NC(=O)Nc2cc(Br)c(C)cc2OC[C@@H]2CNCCO2)cn1
OVCAR-3 ovarian
  GI50: 188 nM
  TGI: 781 nM
HL-60(TB) leukemia
  GI50: 47.8 nM
  TGI: 174 nM
NCI-H460 NSCLC
  GI50: 290 nM
  TGI: 1430 nM
BT-549 breast
  GI50: 84.9 nM
  TGI: 258 nM
UACC-257 melanoma
  GI50: 1420 nM
  TGI: 2730 nM
PC-3 prostate
  GI50: 1240 nM
  TGI: 14200 nM
UACC-62 melanoma
  GI50: 284 nM
  TGI: 1640 nM
SF-539 CNS
  GI50: 54.3 nM
  TGI: 201 nM
HS 578T breast
  GI50: 52.8 nM
  TGI: 245 nM
MDA-MB-468 breast
  GI50: 485 nM
  TGI: 2660 nM
CCRF-CEM leukemia
  GI50: 100 nM
  TGI: 219 nM
CAKI-1 renal
  GI50: 469 nM
  TGI: 2860 nM
OVCAR-8 ovarian
  GI50: 153 nM
  TGI: 443 nM
M14 melanoma
  GI50: 27.1 nM
  TGI: 83.3 nM
786-0 renal
  GI50: 101 nM
  TGI: 427 nM
SNB-75 CNS
  GI50: 369 nM
  TGI: 2950 nM
SF-295 CNS
  GI50: 42.2 nM
  TGI: 210 nM
OVCAR-4 ovarian
  GI50: 163 nM
  TGI: 1390 nM
HCC-2998 colon
  GI50: 41.4 nM
  TGI: 180 nM
TK-10 renal
  GI50: 106 nM
  TGI: 366 nM
A549 NSCLC
  GI50: 706 nM
  TGI: 14300 nM
SNB-19 CNS
  GI50: 482 nM
  TGI: 4850 nM
NCI/ADR-RES ovarian
  GI50: 254 nM
  TGI: 701 nM
KM12 colon
  GI50: 72.3 nM
  TGI: 510 nM
HOP-92 NSCLC
  GI50: 106 nM
  TGI: 851 nM
SF-268 CNS
  GI50: 368 nM
  TGI: 2940 nM
A498 renal
  GI50: 25.5 nM
  TGI: 81.8 nM
LOX IMVI melanoma
  GI50: 1140 nM
  TGI: 2390 nM
MDA-MB-231 breast
  GI50: 608 nM
  TGI: 6180 nM
MOLT-4 leukemia
  GI50: 131 nM
  TGI: 262 nM
MDA-MB-435 melanoma
  GI50: 194 nM
  TGI: 389 nM
DU-145 prostate
  GI50: 347 nM
  TGI: 1490 nM
RXF 393 renal
  GI50: 36.3 nM
  TGI: 165 nM
SK-MEL-5 melanoma
  GI50: 329 nM
  TGI: 1350 nM
NCI-H522 lung
  GI50: 1940 nM
  TGI: 5840 nM
SN12C renal
  GI50: 1800 nM
  TGI: 6090 nM
HOP-62 NSCLC
  GI50: 143 nM
  TGI: 512 nM
U251 glioblastoma
  GI50: 497 nM
  TGI: 1730 nM
NCI-H226 lung
  GI50: 5040 nM
  TGI: 18100 nM
NCI-H322M lung
  GI50: 195 nM
  TGI: 1830 nM
MCF7 breast
  GI50: 56.3 nM
  TGI: 1680 nM
HT29 colon
  GI50: 326 nM
  TGI: 1120 nM
SK-OV-3 ovarian
  GI50: 157 nM
  TGI: 412 nM
SK-MEL-28 melanoma
  GI50: 1050 nM
  TGI: 2230 nM
K-562 leukemia
  GI50: 157 nM
  TGI: 323 nM
T-47D breast
  GI50: 1860 nM
  TGI: 3630 nM
UO-31 renal
  GI50: 264 nM
  TGI: 1850 nM
COLO 205 colon
  GI50: 1690 nM
  TGI: 4720 nM
HCT-116 colon
  GI50: 977 nM
  TGI: 2300 nM
ACHN renal
  GI50: 58.5 nM
  TGI: 254 nM
SW-620 colon
  GI50: 693 nM
  TGI: 2050 nM
RPMI-8226 leukemia
  GI50: 146 nM
  TGI: 317 nM
EKVX NSCLC
  GI50: 436 nM
  TGI: 11400 nM
IGROV1 ovarian
  GI50: 354 nM
  TGI: 12200 nM
HCT-15 colon
  GI50: 303 nM
  TGI: 1130 nM
MALME-3M melanoma
  GI50: 135 nM
  TGI: 1340 nM
NCI-H23 lung
  GI50: 56 nM
  TGI: 244 nM

— PubChem BioAssay (NCI)
